Earlier results as cited in article PMC10761933, “Acquired and intrinsic resistance to vemurafenib in BRAF^V600E ‐driven melanoma brain metastases” (FEBS Open Bio, 2023).

Tests used:
[1] = mice; stated without reference; cited from earlier work
A375 cells = conditions: read-out: IC50 against A375 cells; cited from earlier work
[2] = WT mice; cited from earlier work
[3] = system: melanoma brain metastases; conditions: MBM patients, treatment alone; cited from earlier work

| Compound | t max of oral elacridar [1] | IC50 (A375 cells) | brain–plasma ratio [2] | median overall survival [3] |
| --- | --- | --- | --- | --- |
| COc1cc2c(cc1OC)CN(CCc1ccc(NC(=O)c3cccc4c(=O)c5cccc(OC)c5[nH]c34)cc1)CC2 [elacridar] | ~4 h |  |  |  |
| COC(=O)N[C@@H](C)CNc1nccc(-c2cn(C(C)C)nc2-c2cc(Cl)cc(NS(C)(=O)=O)c2F)n1 [encorafenib] |  | 4 nM | roughly 0.004 |  |
| CC(C)(C)c1nc(-c2cccc(NS(=O)(=O)c3c(F)cccc3F)c2F)c(-c2ccnc(N)n2)s1 [dabrafenib] |  | 4 nM | approximately 0.1 | 7 months |
